Source: patent US20120263764A1, “COMPOSITIONS AND METHODS FOR INHIBITING AND/OR MODULATING EFFECTOR T-CELLS INVOLVED IN INFLAMMATORY NEURODEGENERATIVE DISEASE” (Revalesio Corporation, priority 2011, published 2012)

Test: Body weight in MBP EAE rat model
Assay type: in vivo, Lewis rats
Conditions: Group 2F; at study termination
Text: (§1) Body weight loss can be the first sign of disease initiation, while a sudden marked weight gain tends to accompany remission of EAE symptoms. Therefore, determination of individual body weights of animals was made shortly before EAE induction on study day 0 (study commencement) and thereafter on a daily basis throughout the entire 21-day observation period.
as §1, with “This working EXAMPLE discloses the weight change of rats subjected to the experiment described in Example 7. Body” for “Body”, “and” for “and thereafter”, “the” for “the entire”

With `C[C@@H]1C[C@H]2[C@@H]3CCC4=CC(=O)C=C[C@]4(C)[C@@]3(F)[C@@H](O)C[C@]2(C)[C@@]1(O)C(=O)CO` [Dexamethasone] the “mean body weight lost” value was 2%.
